Melting point data for 32 molecules are collected here from patent US7423030B2, “1-amino-phthalazine derivatives, the preparation and the therapeutic use thereof” (Sanofi-Aventis, priority 2004, dated 2008).

Where a name gives a salt, the structure may show the parent alone.

As usually defined, the melting point is the temperature, or range, at which the solid turns liquid.

`COc1ccc2c(-c3ccc(F)cc3)nnc(NC3CCN(Cc4ccc5ccccc5c4)CC3)c2c1` (as salt: salt) (hydrate or solvate) [Compound 82, 4-(4-Fluorophenyl)-7-methoxy-N-[1-(naphthalen-2-ylmethyl)piperidin-4-yl]phthalazin-1-amine]: the melting point came to 175 °C.
As for `COc1ccc(-c2nnc(NC3CCN(Cc4ccc5[nH]ccc5c4)CC3)c3cc(OC)ccc23)cc1` (as salt: salt) (hydrate or solvate) [Compound 87, N-[1-(1H-indol-5-ylmethyl)piperidin-4-yl]-7-methoxy-4-(4-methoxyphenyl)phthalazin-1-amine], the melting point came to 281 °C.
To `COCc1ccc(-c2nnc(NC3CCN(Cc4ccc5ccccc5c4)CC3)c3cc(OC)ccc23)cc1` (as salt: salt) (hydrate or solvate) [Compound 88, 7-Methoxy-4-(4-methoxymethylphenyl)-N-[1-(naphthalen-2-ylmethyl)piperidin-4-yl]phthalazin-1-amine] belongs 155 °C; to `COc1ccc(-c2nnc(NC3CCN(Cc4ccc(OC)c(C)c4)CC3)c3cc(OC)ccc23)cc1` (as salt: salt) (hydrate or solvate) [Compound 89, 7-methoxy-N-[1-(4-methoxy-3-methylbenzyl)piperidin-4-yl]-4-(4-methoxyphenyl)phthalazin-1-amine], 270 °C; to `COc1ccc(-c2nnc(NC3CCN(Cc4ccc5ncccc5c4)CC3)c3cc(OC)ccc23)cc1` (as salt: salt) (hydrate or solvate) [Compound 99, 7-methoxy-4-(4-methoxyphenyl)-N-[1-(quinolin-6-ylmethyl)piperidin-4-yl]phthalazin-1-amine], 249 °C.
Molecule `COc1ccc(-c2nnc(NC3CCN(Cc4ccc5c(ccn5C)c4)CC3)c3cc(OC)ccc23)cc1` (as salt: salt) (hydrate or solvate) [Compound 100, 7-methoxy-4-(4-methoxyphenyl)-N-{1-[(1-methyl-1H-indol-5-yl)methyl]piperidin-4-yl}phthalazin-1-amine] registered a melting point of 161 °C.
To `COc1ccc(-c2nnc(NC3CCN(Cc4ccc5cc[nH]c5c4)CC3)c3cc(OC)ccc23)cc1` (as salt: salt) (hydrate or solvate) [Compound 129, N-[1-(1H-indol-6-ylmethyl)piperidin-4-yl]-7-methoxy-4-(4-methoxyphenyl)phthalazin-1-amine] belongs 278 °C; to `COc1ccc(OC)c(-c2nnc(NC3CCN(Cc4ccc5ncsc5c4)CC3)c3cc(OC)ccc23)c1` (as salt: salt) (hydrate or solvate) [Compound 135, N-[1-(1,3-benzothiazol-6-ylmethyl)piperidin-4-yl]-4-(2,5-dimethoxyphenyl)-7-methoxyphthalazin-1-amine], 193 °C.
In the case of `COc1ccc(-c2nnc(NC3CCN(Cc4ccc5ccccc5c4)CC3)c3ccc(C)cc23)cc1` (as salt: salt) (hydrate or solvate) [Compound 142, 4-(4-methoxyphenyl)-6-methyl-N-[1-(naphthalen-2-ylmethyl)piperidin-4-yl]phthalazin-1-amine], the melting point was found to be 134 °C.
To `COc1cc(OC)cc(-c2nnc(NC3CCN(Cc4ccc5ccccc5c4)CC3)c3cc(OC)ccc23)c1.Cl.Cl` (hydrate or solvate) belongs 240 °C.
Regarding `COc1ccc(-c2nnc(NC3CCN(Cc4ccc(Cl)cc4)CC3)c3cc(OC)ccc23)cc1.Cl.Cl` (hydrate or solvate), the melting point is 277 °C.
`COc1ccc2c(-c3ccc(-c4ccccc4)cc3)nnc(NC3CCN(Cc4ccc5ccccc5c4)CC3)c2c1.Cl.Cl` (hydrate or solvate) registered a melting point of 292 °C.
To `COc1ccc(-c2nnc(NC3CCN(Cc4ccc(CN)cc4)CC3)c3cc(OC)ccc23)cc1.Cl.Cl.Cl` (hydrate or solvate) belongs 284 °C; to `COc1ccc(-c2nnc(NC3CCN(Cc4ccc(NC(C)=O)cc4)CC3)c3cc(OC)ccc23)cc1.Cl.Cl` (hydrate or solvate), 255 °C.
As to `COc1ccc2c(-c3ccc(C)c(C)c3)nnc(NC3CCN(Cc4ccc5ccccc5c4)CC3)c2c1.Cl.Cl` (hydrate or solvate), the melting point was 210 °C.
The same measure for `COc1ccc(OC)c(-c2nnc(NC3CCN(Cc4ccc5occc5c4)CC3)c3cc(OC)ccc23)c1.Cl.Cl` (hydrate or solvate): 250 °C; for `COc1ccc(OC)c(-c2nnc(NC3CCN(Cc4ccc5c(c4)OCO5)CC3)c3cc(OC)ccc23)c1.Cl.Cl` (hydrate or solvate): 272 °C; for `CCc1ccc(CN2CCC(Nc3nnc(-c4ccc(OC)cc4)c4ccc(OC)cc34)CC2)cc1.Cl.Cl` (hydrate or solvate): 245 °C.
Molecule `COc1ccc2c(COc3ccccc3)nnc(NC3CCN(Cc4ccc5ccccc5c4)CC3)c2c1.Cl.Cl` (hydrate or solvate) had a melting point of 239 °C.
Consider `Cl.Cl.c1ccc(-c2ccc3c(-c4ccccc4)nnc(NC4CCN(Cc5ccc6ccccc6c5)CC4)c3c2)cc1` (hydrate or solvate), for which the melting point came to 224 °C.
`COc1ccc(-c2nnc(NC3CCN(Cc4ccc(C(C)O)cc4)CC3)c3cc(OC)ccc23)cc1.Cl.Cl` (centres unmarked) (hydrate or solvate) displayed a melting point of 208 °C.
`COc1ccc(-c2nnc(NC3CCN(Cc4ccc5ccccc5c4)CC3)c3cc(Cl)ccc23)cc1.Cl.Cl` (hydrate or solvate) showed a melting point of 230 °C.
As for `COc1ccc2c(-c3ccc(Br)cc3)nnc(NC3CCN(Cc4ccc5ccccc5c4)CC3)c2c1.Cl.Cl` (hydrate or solvate), the melting point stood at 246 °C.
Molecule `COCc1nnc(NC2CCN(Cc3ccc4c(c3)OCO4)CC2)c2cc(OC)ccc12.Cl.Cl` (hydrate or solvate) yielded a melting point of 284 °C.
Molecule `COc1ccc(-c2nnc(NC3CCN(Cc4ccc(CN(C)C)cc4)CC3)c3cc(OC)ccc23)cc1.Cl.Cl.Cl` (hydrate or solvate) came in with a melting point of 218 °C.
As for `COc1ccc(-c2nnc(NC3CCN(Cc4ccc5ccccc5c4)CC3)c3cc(OC)cc(OC)c23)cc1.Cl.Cl` (hydrate or solvate), the melting point amounted to 212 °C.
In the case of `COc1cc(-c2ccccc2)c2cnnc(NC3CCN(Cc4ccc5ccccc5c4)CC3)c2c1.Cl.Cl` (hydrate or solvate), the melting point was determined as 199 °C.
The molecule `COc1ccc(-c2nnc(NC3CCN(Cc4ccc5c(c4)OCO5)CC3)c3cc(OC)ccc23)cc1.Cl.Cl` (hydrate or solvate) yielded a melting point of 235 °C.
Molecule `COCc1nnc(NC2CCN(Cc3ccc4ccccc4c3)CC2)c2cc(OC)ccc12.Cl` (hydrate or solvate) came in with a melting point of 176 °C.
As for `COc1ccc(-c2nnc(NC3CCN(C/C=C/c4ccccc4)CC3)c3cc(OC)ccc23)cc1.Cl.Cl` (hydrate or solvate), the melting point was found to be 210 °C.
`COc1ccc(-c2nnc(N[C@@H]3CCN(Cc4ccc5ccccc5c4)C3)c3cc(OC)ccc23)cc1.Cl.Cl` (hydrate or solvate) displayed a melting point of 254 °C.
To `COc1ccc(OC)c(-c2nnc(NC3CCN(Cc4ccc5ccccc5c4)CC3)c3cc(OC)ccc23)c1.Cl.Cl` (hydrate or solvate) belongs 240 °C.
